From patent US10294272B2, “Peptides with antagonistic activities against natural CXCR4” (Pharis Biotec GmbH, priority 2013, dated 2019)
No end group written: not given here.

Experiments:
CD34+ human stem cells = test: CXCL12-induced migration of CD34+ human stem cells; format: cell-based
Procedure: Peripheral hematopoietic stem (PHS) cells isolated by apheresis of Granulo-cyte colony-stimulating factor (G-CSF) treated individuals were obtained from the Institute of Transfusion Medicine, University Hospital Ulm). Frozen cells were carefully thawed in 1/10 diluted 10% ACD-A buffer (provided by the Institute of Transfusion Medicine) in PBS. 1×10^5/200 μl PHS cells were placed into the upper chamber of transwell plates. Then, 10 nM CXCL12 and/or various concentrations of the peptide of SEQ ID NO 16 or its derivatives in 600 μl culture medium were placed to each well. After 3 h, the chemotaxis was measured using the CellTiter-Glo Luminescent Cell Viability Assay as described above. All values represent mean numbers of migrated cells relative to CXCL12 only treated cells from a triplicate experiment±SD.

other GPCRs = test: GPCR antagonist screen; details: selectivity for CXCR4
Excerpt: GPCR Antagonist Screen of the Peptide of SEQ ID NO 16

X4 tropic HIV-1 NL4-3 = details: blocking X4 tropic HIV-1 NL4-3 infection
Procedure: (§1) Antiviral screening was performed using the X4 HIV-1 NL4-3 molecular clone.
(§2) HIV-1, HIV-2 and SIV molecular clones differing in coreceptor tropism were generated by transient transfection of 293T cells with proviral DNA by the calcium phosphate method (CalPhos™ Mammalian Transfection Kit, Clon-tech). After overnight incubation, the transfection mixture was replaced by DMEM medium supplemented with 10% FCS, and virus stocks were harvested 48 hrs post-transfection. Subsequently, the culture supernatant was centrifuged for 5 min at 3000 rpm to remove cell debris. The resulting virus stock was quantified by p24 (HIV) or p27 (SIV) antigen ELISA. Virus stocks were either used immediately or stored in aliquots at −80° C.
(§3) TZM-bl reporter cells containing the LacZ reporter gene under the control of the HIV-1 promoter were seeded in 96-well F-bottom microtiter plates (Greiner Bio-One). On the following day, the cells were preincubated with various dilutions of the peptide of SEQ ID NO 16 or its derivatives for 1 hour and subsequently infected with HIV-1, HIV-2, and SIV. Infection rates were determined after 2 days using the one-step Tropix Gal-Screen Kit, as recommended by the manufacturer.

X4 HIV-1 strains = test system: X4 HIV-1 strains
Procedure: as §1, §2, §3

CXCR4 = target: T1, CXCR4 (Mus musculus, UniProt P70658); test: Progenitor cell mobilization in mice; format: in vivo; details: single i.p. administration
T1 construct: from tissue; host or cells: live mice (C57Bl/6J for mobilization)
T1 sequence (P70658 whole entry): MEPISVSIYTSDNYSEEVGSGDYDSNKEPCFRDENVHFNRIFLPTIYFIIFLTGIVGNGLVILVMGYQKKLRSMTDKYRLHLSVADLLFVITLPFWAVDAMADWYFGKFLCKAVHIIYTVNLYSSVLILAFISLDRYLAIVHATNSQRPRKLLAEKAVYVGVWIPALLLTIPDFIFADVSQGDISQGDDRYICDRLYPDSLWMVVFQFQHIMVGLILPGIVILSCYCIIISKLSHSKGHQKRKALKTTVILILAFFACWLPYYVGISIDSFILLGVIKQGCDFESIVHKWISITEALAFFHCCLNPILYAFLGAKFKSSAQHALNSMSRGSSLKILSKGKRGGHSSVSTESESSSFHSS
Procedure: C57B1/6J mice (Janvier, Le Genest St. Isle, F R) were housed in the conventional vivarium of the Goethe-University Medical Center, Frankfurt, with food and water ad libitum. Mice received i.p. injections of 200 μL water or normal saline containing 10 mg/mL the peptide of SEQ ID NO 16. Blood was drawn at the indicated times following injection from the check pouch after careful skin disinfection. After hypotonic lysis, leukocytes were incubated in duplicate in cytokine-replete commercially available semi-solid media (3434, Stem Cell Technologies, Vancouver, B C) under standard conditions. CFU—C were scored on day 7, as described (Bönig et al., 2006). CFU—C were normalized to the blood volume incubated. All animal studies were done with permission of the local IACUC, in agreement with AAALAC guidelines.

Staphylococus aureus = test: Antibacterial activity against Staphylococcus; format: cell-based
DU145 cells = test: Cancer cell invasion assay; format: cell-based
Procedure: Cell invasion of cancer cells was assayed using a Biocoat Matrigel invasion chamber (BD BioCoat™ Matrigel™ Invasion Chamber) as recommended by the manufacturer. 5×10^4 DU145 cells (ATCC) were suspended in 300 μl serum-free RPMI (Gibco) containing 0.1% BSA (KPL) and then added to the upper chamber. 700 μl serum-free medium with or without 100 nM CXCL12 and various concentrations of the peptide of SEQ ID NO 16 were added to each lower chamber. The chambers were incubated for 24 h at 37° C. in a humid atmosphere of 5% CO2/95% air. The non-invading cells were removed from the upper surface of the membrane by scrubbing. Invaded cells toward the bottom of membrane were quantified using the CellTiter-Glo® Luminescent Cell Viability Assay kit as described above.

LVRYTKKVPQVSTPTL [Derivative 408-423, LVRYTKKVPQVSTPTL]
CXCL12-induced migration of CD34+ human stem cells (CD34+ human stem cells): suppressed
activity of a large number of other GPCRs (other GPCRs): not affected
IC50 (X4 tropic HIV-1 NL4-3): 8.63 µM
mean 50% inhibitory concentration (IC50), infection by X4 HIV-1 strains (X4 HIV-1 strains; mean over X4 HIV-1 strains, chemically synthesized peptide): 15.8 µg/mL
HIV infection after pretreatment of viral target cells (not of virions) (X4 HIV-1 strains; pretreatment of target cells): effective reduction
IC50 (X4 HIV-1 strains; read-out: mean 50% inhibitory concentration (IC50), infection by X4 HIV-1 strains, corresponding to 15.8 μg/ml): 8.6 µM
mobilization of progenitor cells and neutrophils into the periphery (CXCR4): significant mobilization
effects against Staphylococus aureus (Staphylococus aureus): only modest effects
tumor cell invasion in vitro (DU145 cells): prevented
